Test results reported in ChEMBL document CHEMBL4339187, “Discovery of a new class of MTH1 inhibitor by X-ray crystallographic screening” (Eur J Med Chem, 2019).
Activity calls are given as the source filed them. No cut-off for these calls is given here.

How the values were obtained:
[1] = system: Escherichia coli; assay: Inhibition of Escherichia coli inorganic pyrophosphatase assessed as reduction in orthophosphate formation at 0.3 to 10 uM measured after 40 using pyrophosphate as substrate by malachite green dye based absorbance assay
[2] = target: Oxidized purine nucleoside triphosphate hydrolase (Homo sapiens) (UniProt P36639); assay: Binding affinity to recombinant C-terminal 6xHis-tagged MTH1 (3 to 156 residues) (unknown origin) expressed in Escherichia coli BL21(DE3) cells assessed as decrease in fluorescence intensity at 1 to 10 uM after 3 mins by tryptophan fluorescence spectroscopy
[3] = target: Oxidized purine nucleoside triphosphate hydrolase (Homo sapiens) (UniProt P36639); assay: Binding affinity to recombinant C-terminal 6xHis-tagged MTH1 (3 to 156 residues) (unknown origin) expressed in Escherichia coli BL21(DE3) cells assessed as decrease in fluorescence intensity at 1 to 200 uM after 3 mins by tryptophan fluorescence spectroscopy

Structure (SMILES) | inhibition [1] | Activity [2] | Activity [3]
COc1c(O)cc2oc3cc(O)c(CC=C(C)C)c(O)c3c(=O)c2c1CC=C(C)C | inactive |  | 
COc1c(O)cc2oc3cc4c(c(O)c3c(=O)c2c1CC=C(C)C)CCC(C)(C)O4 | inactive | Active | 
CNc1cc(-c2cccc(Cl)c2Cl)nc(N)n1 |  | Active | 
Nc1nc2c(ncn2[C@H]2C[C@H](O)[C@@H](COP(=O)(O)OP(=O)(O)OP(=O)(O)O)O2)c(=O)[nH]1 |  | Active | Active
CC(C)=CCc1c(O)cc2oc3cc(O)c(O)c(CC=C(C)C)c3c(=O)c2c1O |  | Active | 
